Reference: patent US6825308B1, “Copolymers and preparation thereof” (Council of Scientific and Industrial Research, priority 2003, dated 2004)

Molecular target: lysozyme (Gallus gallus, UniProt P00698)
Assay: Relative inhibition of lysozyme, Micrococcus lysodeikticus as substrate (Neuberger and Wilson)
Type: biochemical
Conditions: pH 6.2, 20° C.
Method: This example describes the estimation of inhibition of lysozyme by copolymers.
Micrococcus lysodeikticus is a substrate for the enzyme lysozyme. Relative binding of copolymers was estimated by using a procedure reported by Neuberger and Wilson (1967).
1.5% w/v stock solutions of copolymer was prepared in 0.0066 M phosphate buffer pH 6.2 containing 0.0154 m sodium chloride and 0.008 M sodium azide. One milliliter of stock solution containing different copolymer concentration was mixed with 1.6 ml of 78 μg/ml of Micrococcus lysodeikticus in a 3-ml capacity glass cuvette. The mixture was incubated for 5 minutes at 20° C. To this mixture 0.1 ml of lysozyme (27 μg/ml) was added and mixed thoroughly. The relative absorbance at 450 nm (Δ450) was recorded for 30 seconds. A blank reading without the copolymer was noted and the change in the absorbance per second was calculated. Then relative inhibition was calculated.

lysozyme, sequence (P00698 19-147): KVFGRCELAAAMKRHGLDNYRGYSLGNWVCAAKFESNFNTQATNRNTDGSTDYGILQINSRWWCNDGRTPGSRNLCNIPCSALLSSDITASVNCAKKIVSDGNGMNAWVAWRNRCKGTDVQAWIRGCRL

Imax (concentration at Imax): 92.5 mM
Imax (maximum relative inhibition of lysozyme): 55.29
Compound: CC(=O)N[C@H]1C(O)O[C@H](CO)[C@@H](O)[C@@H]1O (some centres unmarked) [NAG, N-Acetyl Glucosamine]
